From US10159640B2, “Prebiotic oral care compositions containing amino acids” (COLGATE-PALMOLIVE COMPANY, priority 2013, dated 2018)

Experiments:
Assay type in all cases: cell-based
Streptococcus sanguinis = test: Metabolic activity, Biolog phenotype microarray; details: control without dipeptide = 1
Experimental: (§1) The extent of metabolic activity of the tested bacteria in the presence of the above-mentioned dipeptides after 24 hours and 48 hours was investigated through a high throughput phenotype microarray system (PM) for microbial cells (Biolog Inc.). Each PM can contain up to 95 different biochemical compounds (e.g. di-peptides) that may act as substrates for bacteria as well as one negative control, not containing the substrates. Microarray plates were used in which the different wells of each plate were pre-loaded (by the manufacturer, Biolog Inc.) with different di-peptides to be tested. Each bacterial species was tested using a separate microarray plate. Thus, a single bacterial species was tested with a variety of dipeptides on each particular plate. The microarrays are based on redox technology, using cell respiration as a universal reporter. Active cell respiration results in the reduction of a tetrazolium dye and in the formation of a strong color—for example, when using the tetrazolium dye “Biolog Redox Dye Mix D”, the color changes from transparent/colourless to purple when the dye is reduced. The observation of this color change indicates which of the substrates improve the metabolic activity and health of the cells. Each bacterial species was collected from blood agar plates (incubated for 48 hours anaerobically at 37° C.) and transferred to an IF-0 Base inoculation fluid (Biolog Inc.), which is a nutritionally poor medium. The resulting cell suspension was adjusted to a transmittance of 42% (relative to the transmittance of the base inoculation fluid with no bacterial species present) at 492 nm using a BioRad SmartSpec 3000 Photometer (the adjustment being effected by adding either further inoculation fluid or further bacteria until the transmittance of 42% was achieved). A 1:5 dilution of this suspension was prepared by mixing 3 mL of the 42% transmittance cell suspension with 15 mL of an inoculation fluid (which inoculation fluid was formed by mixing 11.6 mL sterile water, 62.5 mL IF-0 base inoculation fluid and 0.9 mL of the tetrazolium dye “Biolog Redox Dye mix D”), resulting in a final cell density which was equal to 85% transmittance using a BioRad SmartSpec 3000 Photometer. 680 μL of a 2M sodium succinate/200 μM ferric citrate solution in distilled water was added to 68 mL of the 85% transmittance cell suspension and 100 μL of this mixture was added to each well (the various di-peptides being already present in powder form in the relevant wells of the plate as obtained from the supplier i.e. Biolog Inc.). All plates were incubated in an anaerobic atmosphere at 37° C. Color changes were measured spectrophotometrically at 492 nm (Thermo Scientific Multiskan Ascent) at 24 hrs and 48 hrs using the same plate at both time points. […] After 24 hrs and 48 hrs under continuous shaking in a Multiscan microplate reader, the optical density (OD) of the synthetic medium at 24 hours and 48 hours was measured (using the microplate reader) at a wavelength of 492 nm for each combination of bacterium/dipeptide, and for each of their respective controls (i.e. which contained the particular bacterium but no dipeptide). […] The experiment was carried out three times for each combination of bacterium with dipeptide, with each repeat being carried out on a different day (thus providing three biological replicas). The controls were also carried out three times, as above. The values shown are the average (mean) of the three single values obtained (as detailed above) for each combination of bacterium with dipeptide, at 24 hrs and at 48 hrs.

Capnocytophaga sputigena = test: Metabolic activity, Biolog phenotype microarray; details: control without dipeptide = 1
Experimental: as §1

Porphyromonas gingivalis = test: Metabolic activity, Biolog phenotype microarray; details: control without dipeptide = 1
Experimental: as §1

[1] = test system: Aggregatibacter actinomycetemcomitans; test: Metabolic activity, Biolog phenotype microarray; details: control without dipeptide = 1
Experimental: as §1

Actinomyces naeslundii = test: Metabolic activity, Biolog phenotype microarray; details: control without dipeptide = 1
Experimental: as §1

Tannerella forsythia = test: Metabolic activity, Biolog phenotype microarray; details: control without dipeptide = 1
Experimental: as §1

Streptococcus sobrinus = test: Metabolic activity, Biolog phenotype microarray; details: control without dipeptide = 1
Experimental: as §1

Actinomyces viscosus = test: Metabolic activity, Biolog phenotype microarray; details: control without dipeptide = 1
Experimental: as §1

Streptococcus gordonii = test: Metabolic activity, Biolog phenotype microarray; details: control without dipeptide = 1
Experimental: as §1

Prevotella intermedia = test: Metabolic activity, Biolog phenotype microarray; details: control without dipeptide = 1
Experimental: as §1

Streptococcus mitis = test: Metabolic activity, Biolog phenotype microarray; details: control without dipeptide = 1
Experimental: as §1

Streptococcus mutans = test: Metabolic activity, Biolog phenotype microarray; details: control without dipeptide = 1
Experimental: as §1

Veillonella parvula = test: Metabolic activity, Biolog phenotype microarray; details: control without dipeptide = 1
Experimental: as §1

Streptococcus salivarius = test: Metabolic activity, Biolog phenotype microarray; details: control without dipeptide = 1
Experimental: as §1

Fusobacterium nucleatum = test: Metabolic activity, Biolog phenotype microarray; details: control without dipeptide = 1
Experimental: as §1

[2] = test system: beneficial oral bacteria and pathogenic oral bacteria; test: Metabolic activity, whole panel: prebiotic effect; details: for prebiotic effects (metabolic activity): threshold value of 2
Experimental: Substrates that were able to increase the metabolic activity of at least one of the above beneficial bacteria while not or only minimally increasing the growth of the pathogenic bacteria are considered to be prebiotic substrates. The extent of metabolic activity of the tested bacteria in the presence of the above-mentioned dipeptides after 24 hours and 48 hours was investigated through a high throughput phenotype microarray system (PM) for microbial cells (Biolog Inc.). Each PM can contain up to 95 different biochemical compounds (e.g. di-peptides) that may act as substrates for bacteria as well as one negative control, not containing the substrates. Microarray plates were used in which the different wells of each plate were pre-loaded (by the manufacturer, Biolog Inc.) with different di-peptides to be tested. Each bacterial species was tested using a separate microarray plate. Thus, a single bacterial species was tested with a variety of dipeptides on each particular plate. The microarrays are based on redox technology, using cell respiration as a universal reporter. Active cell respiration results in the reduction of a tetrazolium dye and in the formation of a strong color—for example, when using the tetrazolium dye “Biolog Redox Dye Mix D”, the color changes from transparent/colourless to purple when the dye is reduced. The observation of this color change indicates which of the substrates improve the metabolic activity and health of the cells. Each bacterial species was collected from blood agar plates (incubated for 48 hours anaerobically at 37° C.) and transferred to an IF-0 Base inoculation fluid (Biolog Inc.), which is a nutritionally poor medium. The resulting cell suspension was adjusted to a transmittance of 42% (relative to the transmittance of the base inoculation fluid with no bacterial species present) at 492 nm using a BioRad SmartSpec 3000 Photometer (the adjustment being effected by adding either further inoculation fluid or further bacteria until the transmittance of 42% was achieved). A 1:5 dilution of this suspension was prepared by mixing 3 mL of the 42% transmittance cell suspension with 15 mL of an inoculation fluid (which inoculation fluid was formed by mixing 11.6 mL sterile water, 62.5 mL IF-0 base inoculation fluid and 0.9 mL of the tetrazolium dye “Biolog Redox Dye mix D”), resulting in a final cell density which was equal to 85% transmittance using a BioRad SmartSpec 3000 Photometer. 680 μL of a 2M sodium succinate/200 μM ferric citrate solution in distilled water was added to 68 mL of the 85% transmittance cell suspension and 100 μL of this mixture was added to each well (the various di-peptides being already present in powder form in the relevant wells of the plate as obtained from the supplier i.e. Biolog Inc.). All plates were incubated in an anaerobic atmosphere at 37° C. Color changes were measured spectrophotometrically at 492 nm (Thermo Scientific Multiskan Ascent) at 24 hrs and 48 hrs using the same plate at both time points. […] After 24 hrs and 48 hrs under continuous shaking in a Multiscan microplate reader, the optical density (OD) of the synthetic medium at 24 hours and 48 hours was measured (using the microplate reader) at a wavelength of 492 nm for each combination of bacterium/dipeptide, and for each of their respective controls (i.e. which contained the particular bacterium but no dipeptide). […] The experiment was carried out three times for each combination of bacterium with dipeptide, with each repeat being carried out on a different day (thus providing three biological replicas). The controls were also carried out three times, as above. The values shown are the average (mean) of the three single values obtained (as detailed above) for each combination of bacterium with dipeptide, at 24 hrs and at 48 hrs. […] This value was selected in order to exclude low-stimulating metabolites and avoid false positive results.

| Substance | metabolic activity: OD 492 nm divided by OD of control (Streptococcus sanguinis; 24 hrs) | metabolic activity: OD 492 nm divided by OD of control (Streptococcus sanguinis; 48 hrs) | metabolic activity: OD 492 nm divided by OD of control (Capnocytophaga sputigena; 24 hrs) | metabolic activity: OD 492 nm divided by OD of control (Capnocytophaga sputigena; 48 hrs) | metabolic activity: OD 492 nm divided by OD of control (Porphyromonas gingivalis; 24 hrs) | metabolic activity: OD 492 nm divided by OD of control (Porphyromonas gingivalis; 48 hrs) | metabolic activity: OD 492 nm divided by OD of control ([1]; 24 hrs) | metabolic activity: OD 492 nm divided by OD of control ([1]; 48 hrs) | metabolic activity: OD 492 nm divided by OD of control (Actinomyces naeslundii; 24 hrs) | metabolic activity: OD 492 nm divided by OD of control (Actinomyces naeslundii; 48 hrs) | metabolic activity: OD 492 nm divided by OD of control (Tannerella forsythia; 24 hrs) | metabolic activity: OD 492 nm divided by OD of control (Tannerella forsythia; 48 hrs) | metabolic activity: OD 492 nm divided by OD of control (Streptococcus sobrinus; 24 hrs) | metabolic activity: OD 492 nm divided by OD of control (Streptococcus sobrinus; 48 hrs) | metabolic activity: OD 492 nm divided by OD of control (Actinomyces viscosus; 24 hrs) | metabolic activity: OD 492 nm divided by OD of control (Actinomyces viscosus; 48 hrs) | metabolic activity: OD 492 nm divided by OD of control (Streptococcus gordonii; 24 hrs) | metabolic activity: OD 492 nm divided by OD of control (Streptococcus gordonii; 48 hrs) | metabolic activity: OD 492 nm divided by OD of control (Prevotella intermedia; 24 hrs) | metabolic activity: OD 492 nm divided by OD of control (Prevotella intermedia; 48 hrs) | other results |
| --- | --- | --- | --- | --- | --- | --- | --- | --- | --- | --- | --- | --- | --- | --- | --- | --- | --- | --- | --- | --- | --- |
| Ser-Gln | 1.1901 | 1.6298 | 2.2409 | 1.6963 | 1.1453 | 1.4999 | 0.9996 | 1.1574 | 1.2183 | 1.5857 | 1.1929 | 1.4647 | 1.1504 | 1.6280 | 1.6173 | 2.0308 | 0.9754 | 1.4584 | 1.2382 | 1.3661 | metabolic activity: OD 492 nm divided by OD of control (Streptococcus mitis; 24 hrs): 1.0595; metabolic activity: OD 492 nm divided by OD of control (Streptococcus mitis; 48 hrs): 1.5980; metabolic activity: OD 492 nm divided by OD of control (Streptococcus mutans; 24 hrs): 1.2511; metabolic activity: OD 492 nm divided by OD of control (Streptococcus mutans; 48 hrs): 1.7642; metabolic activity: OD 492 nm divided by OD of control (Veillonella parvula; 24 hrs): 0.8812; metabolic activity: OD 492 nm divided by OD of control (Veillonella parvula; 48 hrs): 0.8706; metabolic activity: OD 492 nm divided by OD of control (Streptococcus salivarius; 24 hrs): 1.1847; metabolic activity: OD 492 nm divided by OD of control (Streptococcus salivarius; 48 hrs): 1.6185; metabolic activity: OD 492 nm divided by OD of control (Fusobacterium nucleatum; 24 hrs): 1.2502; metabolic activity: OD 492 nm divided by OD of control (Fusobacterium nucleatum; 48 hrs): 1.6185; prebiotic effects (metabolic activity) ([2]; 24 hrs): exhibited prebiotic effects; prebiotic effects (metabolic activity) ([2]; 48 hrs): exhibited prebiotic effects |
| Ser-Leu | 1.2625 | 1.6049 | 1.9645 | 1.6522 | 1.4626 | 1.8440 | 1.6871 | 2.2912 | 1.4949 | 1.8831 | 1.3950 | 1.8466 | 1.4887 | 2.0704 | 2.2523 | 2.5540 | 1.5333 | 1.8912 | 1.5403 | 1.8484 | metabolic activity: OD 492 nm divided by OD of control (Streptococcus mitis; 24 hrs): 1.6052; metabolic activity: OD 492 nm divided by OD of control (Streptococcus mitis; 48 hrs): 2.0461; metabolic activity: OD 492 nm divided by OD of control (Streptococcus mutans; 24 hrs): 1.6244; metabolic activity: OD 492 nm divided by OD of control (Streptococcus mutans; 48 hrs): 2.2977; metabolic activity: OD 492 nm divided by OD of control (Veillonella parvula; 24 hrs): 1.4153; metabolic activity: OD 492 nm divided by OD of control (Veillonella parvula; 48 hrs): 1.4281; metabolic activity: OD 492 nm divided by OD of control (Streptococcus salivarius; 24 hrs): 1.4865; metabolic activity: OD 492 nm divided by OD of control (Streptococcus salivarius; 48 hrs): 2.0833; metabolic activity: OD 492 nm divided by OD of control (Fusobacterium nucleatum; 24 hrs): 1.4813; metabolic activity: OD 492 nm divided by OD of control (Fusobacterium nucleatum; 48 hrs): 1.7358; prebiotic effects (metabolic activity) ([2]; 24 hrs): exhibited prebiotic effects; speed of metabolism by beneficial versus pathogenic bacteria ([2]; value of 2 reached at 24 hrs for beneficial but not pathogenic bacteria): metabolized faster by the beneficial bacteria than by the pathogenic bacteria |
